Test results from paper PMC4326127, “Collagen Inhibitory Peptide R1R2 Mediates Vascular Remodeling by Decreasing Inflammation and Smooth Muscle Cell Activation” (PLoS ONE, 2015).

Columns and labels:
collagen = test: Hydroxyproline assay of carotid collagen content; assay type: in vivo, FVB/NJ (FVB) mice; details: 14 days post-ligation; three carotid arteries pooled per group; colorimetric chloramine T; mean ± SEM, n = 3
Description: (§1) Animals were anesthetized with isoflurane inhalation. The left common carotid artery was exposed, dissected free from the surrounding connective tissue and completely ligated with 6-0 silk suture just proximal to the carotid bifurcation. […] 4–10 mice were included in each experimental group.
After reconstituting with water, samples were measured using a colorimetric chloramine T assay. Three independent experiments were performed for statistical analysis.
(§2) For in vivo experiments, the data are shown as the mean ± SEM. For in vitro experiments, the data shown are the means ± SD of a representative experiment, at least 3 independent experiments were performed. One-way ANOVA with post-hoc testing were used for data analysis with GraphPad Prism software (GraphPad, San Diego, CA). If normality test failed, nonparametric Kruskal-Wallis test followed by Dunn's post-hoc test were used. P > 0.05 was not considered significant.

[1] = test system: smooth muscle α-actin (SMAA); test: IHC for smooth muscle α-actin in ligated carotid artery; assay type: in vivo, FVB/NJ (FVB) mice; details: 7 days post-ligation; mean ± SEM; scrambled n = 6, R1R2 n = 5 (sham 0.232 ± 0.011, n = 5)
Description: as §1
(§3) Paraffin sections selected from the first mm of the carotid artery in each group were used for immunohistochemistry (IHC). […] Sections were then incubated with appropriate biotinylated secondary antibodies followed by avidin-biotin immunoperoxidase system (Vector Laboratories, Burlingame, CA). Liquid DAB Substrate Chromogen system (Dako, Carpinteria, CA) was used for detection.
(§4) Quantitative IHC analysis was performed on digital images captured with a 20x objective by using Image-Pro Plus software. Data from 3–6 mice for each group were averaged, and the average values ± SEM were shown. For FN, collagen type I, SM-MHC and SM α-actin, color digital images were transformed into gray scale, and the sum of the optical densities from the intima+media area in each section was determined. […] The percent of positive cells is reported as the proliferation index. […] The intima+media region was traced manually. The percent of positively stained area in intima+media to the total traced area was assessed.
(§5) For in vivo experiments, the data are shown as the mean ± SEM. […]

VCAM-1 [2] = test: VCAM-1 IHC in ligated carotid artery; assay type: in vivo, FVB/NJ (FVB) mice; details: 7 days after ligation; percent of positively stained area; mean ± SEM; R1R2 n = 7, control peptide n = 9
Description: as §1, §3, §4, §5

A7r5 SMCs = test: SMC migration, scrape wound assay; assay type: cell-based
Description: (§6) Human umbilical vein endothelial cells (HUVECs) and A7r5 SMCs were provided by Resource Center (SB3, NSC 100-2325-B-080-001), National Research Program for Biopharmaceuticals (Hsinchu, Taiwan). HUVECs were maintained in M199 (Life Technologies, Carlsbad, CA) with 25U/ml heparin (Sigma-Aldrich, St. Louis, MO), 10% fetal bovine serum (FBS) and endothelial cell growth supplement (ECGS; Millipore, Billerica, MA). A7r5 SMCs were grown in Dulbecco’s Modified Eagle’s Medium (DMEM) containing high glucose, supplemented with 10% fetal bovine serum. Human U937 cells were grown in RPMI1640 with 10% FBS.
A scrape wound assay was used to assess the effect of R1R2 and scrambled peptides on SMC migration as described. Briefly, A7r5 SMCs were grown until 90% confluent, followed by serum starvation and treatment with R1R2 and scrambled peptides for 36 hours. Several scrape wounds were then performed across the dish with a sterile yellow pipet tip. We initiated the experiment with treatment of cells with 10 ng/ml PDGF-BB. Photographs of the wound area were taken immediately after PDGF-BB addition (0 hour) and 30 hours postwounding with an Olympus CKX-41 microscope connected to a camera. At least three photographs were taken per group at each time point. Wound areas were determined using Image-Pro Software (Media Cybernetics, MD). Measurement of migration was determined by subtracting the cell-free area 30 hours after PDGF-BB addition from the cell-free area in the beginning of scrape wounds.
For in vivo experiments, the data are shown as the mean ± SEM. For in vitro experiments, the data shown are the means ± SD of a representative experiment, at least 3 independent experiments were performed. […]
Fig 6 R1R2 reduces SMC proliferation and migration. […] Cells were counted at the indicated time in the figure (n = 5). […] (C) Quantitation of SMC migration in the scratch wound healing assay was performed by subtracting the cell-free area 30 hours after PDGF-BB stimulation from the cell-free area in the beginning (n = 5). * indicates p<0.05 and ** p< 0.01.

U937 cells / HUVECs = test: Monocyte U937 adhesion to HUVECs; assay type: cell-based, human; details: HUVECs treated with 10 ng/ml TNF-α; calcein-AM U937 5x10^5 cells/well, 30 minutes at 37°C; fluorescence 485/535; mean ± SD
Description: as §2

VCAM-1 [3] = test: Western blot of VCAM-1 in TNF-α-treated HUVECs; assay type: cell-based, human; details: in words
Description: as §6
Tissues or cells were homogenized with RIPA buffer supplemented with protease inhibitor cocktail (Sigma-Aldrich, St. Louis, MO). Cell lysates were spun at 12,000 rpm for 15 min at 4°C, then electrophoresed on 10% SDS-PAGE gel and transferred to nitrocellulose. […]
Fig 8 R1R2 decreases TNF-α-induced monocyte U937 cell adhesion to HUVECs and transendothelial migration and reduces ICAM-1 and VCAM-1 levels. […] Calcein-AM labeled U937 monocyte adhesion to TNF-α HUVECs was quantitated by fluorescence intensity. Microscopic images showing U937 monocytes adhering to HUVECs as assessed by in vitro adhesion assay. […]

With “GLNGENQKEPEQGERGEAGPPLSGLSGNNQGRPSLPGLNGENQKEPEQGERGEAGPP [R1R2]” the “collagen content, hydroxyproline assay” value (collagen) was 1.522 ± 0.077, the “SMAA IHC staining in intima-media area” value [1] was 0.214 ± 0.004 and the “VCAM-1 (+) area in intima-media” value (VCAM-1 [2]) was 10.36 ± 1.802%. The “effect on SMC migration (wound healing images)” value (A7r5 SMCs; 30 hours post PDGF-stimulation, versus scrambled peptide, in words) was “cells migrated more slowly”, the “SMC migration (cell-free area at 0 h minus cell-free area at 30 hours)” value (A7r5 SMCs; A7r5 SMCs, 36 hours peptide pretreatment, 10 ng/ml PDGF-BB, 30 hours, mean ± SD, n = 3) was 130149 ± 53295 and the “U937 adhesion to HUVECs” value (U937 cells / HUVECs) was 197697 ± 34184 cells per cm^2. The “VCAM-1 expression on HUVECs” value (VCAM-1 [3]) was “significantly decreased”.
